Data set [1] in a line: Drug uptake in human PMNC assessed as increase in intracellular compound concentration by radiometric assay relative to control. The data set is classed as ADME, cell-based.
Data set [2] concerns Plasma. Kind of data set: Drug uptake in plasma of patient with hematological malignancies at 200 mg administered 3 to 4 times a day measured by liquid chromatography-tandem mass spectroscopy. The note with it: human, in vivo.
The nature of data set [3]: Cellular uptake in RBC of patient with hematological malignancies at 200 mg administered 3 to 4 times a day measured by liquid chromatography-tandem mass spectroscopy. Conditions: human, in vivo.
The subject of data set [4] is PBMC. Kind of data set: Cellular uptake in PBMC of patient with hematological malignancies at 200 mg administered 3 to 4 times a day measured by liquid chromatography-tandem mass spectroscopy. The note with it: human, in vivo.
A short description of data set [5]: Cellular uptake in PMNC of patient with hematological malignancies at 200 mg administered 3 to 4 times a day measured by liquid chromatography-tandem mass spectroscopy. The note with it: human, in vivo.
The nature of data set [6]: Ratio of intracellular to extracellular cellular uptake in RBC of patient with hematological malignancies at 200 mg administered 3 to 4 times a day measured by liquid chromatography-tandem mass spectroscopy. Conditions: human, in vivo.
The subject of data set [7] is PBMC. Kind of data set: Ratio of intracellular to extracellular cellular uptake in PBMC of patient with hematological malignancies at 200 mg administered 3 to 4 times a day measured by liquid chromatography-tandem mass spectroscopy. Conditions: human, in vivo.
Data set [8] can be described thus: Ratio of intracellular to extracellular cellular uptake in PMNC of patient with hematological malignancies at 200 mg administered 3 to 4 times a day measured by liquid chromatography-tandem mass spectroscopy. The note with it: human, in vivo.
Data set [9] is described as follows: Ratio of intracellular to extracellular drug uptake in alveolar macrophages of New Zealand white rabbit infected with Mycobacterium bovis at 1 ug/ml. The data set is classed as ADME, cell-based, Oryctolagus cuniculus. The note with it: macrophage.
Data set [10] can be described thus: Ratio of intracellular to extracellular drug uptake in RBC of New Zealand white rabbit infected with Mycobacterium bovis at 1 ug/ml. The data set is classed as ADME, cell-based, Oryctolagus cuniculus. The note with it: erythrocyte.
A short description of data set [11]: Ratio of intracellular to extracellular drug uptake in alveolar macrophages of New Zealand white rabbit infected with Mycobacterium bovis at 1 ug/ml in presence of 5% serum. The class given is ADME, cell-based, Oryctolagus cuniculus. The note with it: macrophage.
Data set [12] can be described thus: Ratio of intracellular to extracellular drug uptake in alveolar macrophages of New Zealand white rabbit infected with Mycobacterium bovis at 1 ug/ml in presence of 100% serum. The class given is ADME, cell-based, Oryctolagus cuniculus. The note with it: macrophage.
A short description of data set [13]: Ratio of cellular uptake in alveolar macrophages to plasma of healthy human at 14 doses of […], twice daily. The data set is classed as ADME, organism-based.
Data set [14] can be described thus: Ratio of cellular uptake in alveolar macrophages to plasma of healthy human.

Structures are written as SMILES.

As to `OC(Cn1cncn1)(Cn1cncn1)c1ccc(F)cc1F` [FLUCONAZOLE], the “fold change (FC)” value in [1] stood at 2.2.

With `C[C@@H](c1ncncc1F)[C@](O)(Cn1cncn1)c1ccc(F)cc1F` [VORICONAZOLE], in data set [1], the “fold change (FC)” value stood at 8.5.

Take `CC[C@@H]([C@H](C)O)n1ncn(-c2ccc(N3CCN(c4ccc(OC[C@@H]5CO[C@@](Cn6cncn6)(c6ccc(F)cc6F)C5)cc4)CC3)cc2)c1=O` [POSACONAZOLE]: the Drug uptake in [2] turned out to be 603.2 ng/mL; in data set [3], 50.8 ng/mL; in [4] it was 12764 ng/mL; in data set [5] it was 4031 ng/mL. For the same compound, the Ratio is reported as 0.09 in data set [6], 22.5 in data set [7] and 7.66 in data set [8].

Usually Kp stands for the ratio of the level in a tissue or fluid to that in plasma or blood. For the compound `CCC(C)n1ncn(-c2ccc(N3CCN(c4ccc(OCC5COC(Cn6cncn6)(c6ccc(Cl)cc6Cl)O5)cc4)CC3)cc2)c1=O` (stereo not given) [ITRACONAZOLE], the Ratio is given as 87.9 in data set [9], 90.4 in data set [10], 18 in data set [11] and 3 in data set [12]. Besides, the figures for the Kp in [13] and in data set [14] were 44.3 and 27.3, respectively.

Values taken from ChEMBL document CHEMBL1629693, “Intracellular concentrations of posaconazole in different compartments of peripheral blood” (Antimicrob Agents Chemother, 2010).
